The term clearance denotes the volume of plasma or blood freed of the substance per unit of time. Lower therefore signals a low capacity for elimination. A word on the bioavailability: it is the share of a dose that reaches the circulation, judged against a reference dose that is usually intravenous. Low values mean little systemic uptake, high ones much systemic uptake. One may read the AUC(0-t) as the area under the concentration-time curve up to a stated or last time point. A high value points to more exposure. As usually defined, the half-life is the time needed for the level to fall by half in the phase considered. A lower half-life goes with fast loss. As usually defined, the Cmax is the peak of the concentration-time curve. For orientation: Tmax means the time from dosing to the highest level. Broadly, the AUC is the area under the concentration-time curve, a measure of exposure. Low readings indicate less exposure, high ones more exposure.

Data on nine compounds can be found in ChEMBL document CHEMBL4130376, “Discovery of methylsulfonyl indazoles as potent and orally active respiratory syncytial Virus(RSV) fusion inhibitors” (Eur J Med Chem, 2017).

Data set [1] can be described thus: Plasma clearance in rat at 2 mg/kg, iv. In kind it is ADME, organism-based.
Data set [2] can be described thus: Oral bioavailability in rat at 10 mg/kg. In kind it is ADME, organism-based. To be noted: in vivo.
A short description of data set [3]: AUC (0 to 24 hrs) in rat at 10 mg/kg, po. In kind it is ADME, organism-based. Details: time < 24 hr, dose 10 mg/kg, route oral. Conditions: in vivo.
Data set [4] is described as follows: AUC (0 to 24 hrs) in rat at 2 mg/kg, iv. In kind it is ADME, organism-based. More on the design: dose 2 mg/kg, time < 24 hr, route intravenous. To be noted: in vivo.
Data set [5] is described as follows: Half life in rat at 2 mg/kg, iv. The format is ADME, organism-based. Conditions: in vivo.
The nature of data set [6]: Cmax in rat at 2 mg/kg, iv. In kind it is ADME, organism-based. Details: dose 2 mg/kg, route intravenous. Conditions: in vivo.
Data set [7] in a line: Metabolic stability in mouse liver microsomes by high-throughput screening based assay. In kind it is ADME, microsome. To be noted: read-out: Stability. (Liver microsomes are vesicles of endoplasmic reticulum, rich in cytochrome P450 enzymes.)
The nature of data set [8]: Tmax in rat at 10 mg/kg, po. In kind it is ADME, organism-based. Conditions: in vivo.
The nature of data set [9]: Volume of distribution at steady state in rat at 2 mg/kg, iv. In kind it is ADME, organism-based. Conditions: in vivo, read-out: Vdss.
A short description of data set [10]: Effective permeability of the compound by PAMPA. In kind it is ADME. To be noted: read-out: Peff. For orientation: In PAMPA a lipid-coated filter parts donor from acceptor wells.
Data set [11] can be described thus: Half life in rat at 10 mg/kg, po. The format is ADME, organism-based. Conditions: in vivo.
A short description of data set [12]: Metabolic stability in human liver microsomes by high-throughput screening based assay. The format is ADME, microsome. Conditions: read-out: Stability.
A short description of data set [13]: Cmax in rat at 10 mg/kg, po. Details: dose 10 mg/kg, route oral. Conditions: in vivo. In kind it is ADME, organism-based.
A short description of data set [14]: Oral bioavailability in rat at 5 mg/kg. The format is ADME, organism-based. To be noted: in vivo.
Data set [15] in a line: Cmax in rat at 1 mg/kg, iv. In kind it is ADME, organism-based. Details: dose 1 mg/kg, route intravenous. Conditions: in vivo.
The nature of data set [16]: Volume of distribution at steady state in rat at 1 mg/kg, iv. In kind it is ADME, organism-based. Conditions: in vivo, read-out: Vdss.
The nature of data set [17]: Tmax in rat at 5 mg/kg, po. In kind it is ADME, organism-based. Conditions: in vivo.
The nature of data set [18]: Metabolic stability in rat liver microsomes by high-throughput screening based assay. In kind it is ADME, microsome. Conditions: read-out: Stability.
Data set [19] can be described thus: Half life in rat at 1 mg/kg, iv. In kind it is ADME, organism-based. To be noted: in vivo.
Data set [20] in a line: Cmax in rat at 5 mg/kg, po. Conditions: in vivo. Details: dose 5 mg/kg, route oral. The format is ADME, organism-based.
In data set [21] the test system is Rattus norvegicus. Put plainly: AUC (0 to 24 hrs) in rat at 1 mg/kg, iv. Conditions: in vivo. The format is ADME, organism-based. More on the design: dose 1 mg/kg, time < 24 hr, route intravenous.
The nature of data set [22]: AUC (0 to 24 hrs) in rat at 5 mg/kg, po. In kind it is ADME, organism-based. More on the design: dose 5 mg/kg, time < 24 hr, route oral. To be noted: in vivo.
Data set [23] concerns Mus musculus. Briefly: Oral bioavailability in ICR mouse at 25 mg/kg. To be noted: in vivo. The format is ADME, organism-based.
A short description of data set [24]: Cmax in ICR mouse at 25 mg/kg, po. In kind it is ADME, organism-based. Details: dose 25 mg/kg, route oral. Conditions: in vivo.
For data set [25], the system named is Mus musculus. Briefly: (§1) AUC (0 to 24 hrs) in ICR mouse at 2 mg/kg, iv. The format is ADME, organism-based. More on the design: time < 24 hr, dose 2 mg/kg, route intravenous. Conditions: in vivo, 24 h.
Data set [26] in a line: Cmax in ICR mouse at 2 mg/kg, iv. In kind it is ADME, organism-based. Details: dose 2 mg/kg, route intravenous. Conditions: in vivo.
Data set [27] in a line: Tmax in ICR mouse at 25 mg/kg, po. The format is ADME, organism-based. To be noted: in vivo.
Data set [28] in a line: Half life in ICR mouse at 25 mg/kg, po. The format is ADME, organism-based. Conditions: in vivo.
Data set [29] is described as follows: Half life in ICR mouse at 2 mg/kg, iv. The format is ADME, organism-based. To be noted: in vivo.
For data set [30], the system named is Mus musculus. Put plainly: AUC (0 to 24 hrs) in ICR mouse at 25 mg/kg, po. In kind it is ADME, organism-based. Details: dose 25 mg/kg, time < 24 hr, route oral. Conditions: in vivo.
Data set [31] is described as follows: Volume of distribution at steady state in ICR mouse at 2 mg/kg, iv. Conditions: in vivo, read-out: Vdss. The format is ADME, organism-based.
A short description of data set [32]: Half life in ICR mouse at 12.5 mg/kg, po. The format is ADME, organism-based. Conditions: in vivo.
Data set [33] is described as follows: Plasma clearance in ICR mouse at 2 mg/kg, iv. In kind it is ADME, organism-based.
Data set [34] in a line: Oral bioavailability in ICR mouse at 12.5 mg/kg. In kind it is ADME, organism-based. To be noted: in vivo.
A short description of data set [35]: Cmax in ICR mouse at 12.5 mg/kg, po. In kind it is ADME, organism-based. Details: dose 12.5 mg/kg, route oral. Conditions: in vivo.
Data set [36] is described as follows: AUC (0 to 24 hrs) in ICR mouse at 12.5 mg/kg, po. In kind it is ADME, organism-based. Details: time < 24 hr, dose 12.5 mg/kg, route oral. Conditions: in vivo.
Data set [37] can be described thus: Tmax in ICR mouse at 12.5 mg/kg, po. The format is ADME, organism-based. To be noted: in vivo.
Data set [38] can be described thus: as §1. In kind it is ADME, organism-based. Details: time < 24 hr, dose 2 mg/kg, route intravenous. To be noted: ICR, in vivo.
The test system of data set [39] is Mus musculus. Briefly: AUC (0 to 24 hrs) in ICR mouse at […], po. The format is ADME, organism-based. More on the design: time < 24 hr, dose 8.3 mg/kg, route oral. Conditions: in vivo.
A short description of data set [40]: Cmax in ICR mouse at […], po. The format is ADME, organism-based. Details: dose 8.3 mg/kg, route oral. To be noted: in vivo.
A short description of data set [41]: Half life in ICR mouse at […], po. In kind it is ADME, organism-based. To be noted: in vivo.
Data set [42] can be described thus: Tmax in ICR mouse at […], po. In kind it is ADME, organism-based. To be noted: in vivo.
In data set [43] the test system is Mus musculus. Briefly: Oral bioavailability in ICR mouse at […]. To be noted: in vivo. In kind it is ADME, organism-based.

In [1], `CS(=O)(=O)CCCn1c(Cn2nc(S(C)(=O)=O)c3ccccc32)nc2cc(Cl)ccc21` yielded a clearance of 17.4 mL/min/kg. Further, the bioavailability in [2] stood at 1.7%. Moreover, the values for the AUC(0-t) at 24 h in data set [3] and in [4] were 204 ng·h/mL and 2470 ng·h/mL, respectively. Also, the half-life was 3.91 h in data set [5] and 3.66 h in data set [11]. Further, the figures for the peak concentration (Cmax) in [6] and in data set [13] were 1160 ng/mL and 22.2 ng/mL, respectively. The results for the CLhep predicted in data set [7] and in data set [12] were 14.9 mL/min/kg and 3.42 mL/min/kg, respectively. Moreover, the time to peak (Tmax) in [8] turned out to be 2.67 h. In data set [9], the Vd was 2.5 L/kg. Also, the Papp in [10] amounted to 2.78 ×10⁻⁶ cm/s.
As to `CS(=O)(=O)CCCn1c(Cn2cc(S(C)(=O)=O)c3ccccc32)nc2cc(Cl)ccc21`, in data set [14], the bioavailability was determined as 1.46%. The Cmax is 371 ng/mL in data set [15] and 4.05 ng/mL in [20]. In data set [16], the Vd is 2.71 L/kg. Besides, the time of peak concentration (Tmax) in [17] worked out at 4.67 h. Besides, the CLhep predicted is 1.33 mL/min/kg in data set [18], 34 mL/min/kg in data set [7] and 0.66 mL/min/kg in [12]. Moreover, in data set [19], the half-life was 0.674 h. The Papp in data set [10] was in the range of 1.55 to 2.36 ×10⁻⁶ cm/s. In [21], the AUC worked out at 294 ng·h/mL. The same compound registered an AUC(0-t) at 24 h in data set [22] of 21.4 ng·h/mL.
For `CS(=O)(=O)c1nn(Cc2nc3cc(Cl)ccc3n2CCCCO)c2cnccc12`, in data set [23], the F is on record as 19%. Further, the CLhep predicted in data set [18] is 20.7 mL/min/kg; in data set [7], 25.5 mL/min/kg; in [12] it was 2.58 mL/min/kg. Further, the figures for the maximum concentration (Cmax) in [24] and in data set [26] were 425 ng/mL and 1420 ng/mL, respectively. Moreover, the results for the AUC in data set [25] and in [30] were 1380 ng·h/mL and 580 ng·h/mL, respectively. In data set [27], the Tmax is 0.25 h. In addition, the Papp in [10] was 2.42 ×10⁻⁶ cm/s. In addition, the half-life is 1.81 h in data set [28] and 0.297 h in data set [29]. For the same compound, in [31], the Vd is 1.08 L/kg.
On to `CS(=O)(=O)c1nn(Cc2nc3cc(Cl)ccc3n2CCCO)c2cnccc12`, for which the half-life is 6.6 h in data set [32] and 4.05 h in data set [29]. This compound registered a clearance in data set [33] of 37.4 mL/min/kg. In [34], this compound came in with a bioavailability of 17.1%. Moreover, the figures for the CLhep predicted in data set [18], in [7] and in data set [12] were 14.9 mL/min/kg, 15.3 mL/min/kg and 2.96 mL/min/kg, respectively. For the same compound, the Cmax in data set [35] came out at 155 ng/mL; in [26], 1730 ng/mL. Also, the exposure AUC(0-t) at 24 h was 891 ng·h/mL in data set [36] and 954 ng·h/mL in data set [38]. Also, the Tmax in [37] turned out to be 0.5 h. Also, in data set [10], the Papp is 3.47 ×10⁻⁶ cm/s. Moreover, the Vd in data set [31] is 8.3 L/kg.
Take `CS(=O)(=O)CCn1c(Cc2cn(S(C)(=O)=O)c3ccccc23)nc2ccccc21`: the CLhep predicted in data set [7] was 73.2 mL/min/kg; in [12], 16.5 mL/min/kg.
Taken in the same sequence, the figures for `CS(=O)(=O)CCc1c(CN2C(=O)C3(CC3)c3ccncc32)nc2cc(Cl)ccn12` were 63.5 mL/min/kg and 2.6 mL/min/kg.
For `CS(=O)(=O)c1nn(Cc2nc3cc(Cl)ccc3n2CCC(F)(F)F)c2cnccc12`, the clearance in data set [33] stood at 12.2 mL/min/kg. In addition, the results for the exposure (AUC) in data set [39] and in data set [25] were 2730 ng·h/mL and 4830 ng·h/mL, respectively. Besides, the Cmax in [40] came out at 589 ng/mL; in [26] it was 1940 ng/mL. Further, the CLhep predicted in [18] is 0.28 mL/min/kg; in [7], 18 mL/min/kg; in data set [12] it was 1.09 mL/min/kg. The half-life was 3.16 h in data set [41] and 1.03 h in [29]. Besides, the Tmax in data set [42] came to 1 h. The compound also had a F in data set [43] of 42.8%. The Papp in [10] came to 2.81 ×10⁻⁶ cm/s. For the same compound, the Vd in data set [31] amounted to 1.04 L/kg.
On to `CS(=O)(=O)CCn1c(Cn2cc(S(C)(=O)=O)c3ccccc32)nc2cc(Cl)ccc21`, for which, in data set [10], the Papp worked out at 2.3 ×10⁻⁶ cm/s.
With `CS(=O)(=O)c1nn(Cc2nc3cc(Cl)ccc3n2CCC(O)C(F)(F)F)c2cnccc12` (stereo not given), the CLhep predicted is 18 mL/min/kg in data set [18], 26.5 mL/min/kg in [7] and 4.51 mL/min/kg in [12]. Further, in data set [10], the Papp worked out at 4.29 ×10⁻⁶ cm/s.
